Results taken from paper PMC3249654 (The Open Virology Journal, 2011).
Several values for one entry are separate records, joined by “and”; a condition that tells them apart may be missing. Identical values can stand only once. Entries after “also recorded” stand apart in the source; their conditions may differ. Like-named read-outs stand apart in the source and are kept apart here.

Experiments:
[1] = test system: M2 of influenza A(H1N1) viruses
[2] = test system: NA enzyme activity of influenza A(H1N1) viruses; format: biochemical, influenza A(H1N1) virus
influenza virus = conditions: human, in vivo; cited from earlier work

SMILES: NC12CC3CC(CC(C3)C1)C2 [amantadine]
- susceptibility of oseltamivir resistant A(H1N1) viruses to amantadine / M2I [1]: still susceptible

SMILES: CCOC(=O)C1=C[C@@H](OC(CC)CC)[C@H](NC(C)=O)[C@@H](N)C1 [oseltamivir]
- proportion of viruses resistant against oseltamivir, phenotypic assessment [2]: 29%
- oseltamivir-resistance emerged in treated children (influenza virus): 18% and 16%

SMILES: CC(=O)N[C@H]1[C@H]([C@H](O)[C@H](O)CO)OC(C(=O)O)=C[C@@H]1N=C(N)N [zanamivir]
- susceptibility of oseltamivir resistant A(H1N1) viruses to zanamivir [2]: None of influenza A(H1N1) oseltamivir resistant viruses tested was resistant; also recorded: sensitive; also recorded: still susceptible
- IC50 ([2]; read-out: baseline zanamivir IC50-value (mean±SD)): 1.05 nM and 0.98 nM
- IC50 ([2]; read-out: mean IC50 ± SD): 0.87 ± 0.22 nM
